Source: patent US20240166669A1, “QUINAZOLINE AMINE DERIVATIVES AS KRAS INHIBITORS” (Nikang Therapeutics, Inc., priority 2021, published 2024)

Molecular target: T1, K-Ras G12D (Homo sapiens, UniProt P01116, G12D)
T1 construct: AGS (Cobioer, CBP60476) cell lines which harbor KRAS G12D mutation; host or cells: AGS
Assay: p-ERK Cellular 2-Plate Assay (Biological Example 2)
Format: cell-based
Conditions: AGS cells (KRAS G12D), 3 h treatment, AlphaLISA p-ERK1/2, 2-plate; Biological Example 2 (unmarked values); read-out: AGS PERK EC50
Protocol: The ability of the compound of Formula (IIA′), (II′), or (II) or a pharmaceutically acceptable salt thereof (test compound) to inhibit K-Ras G12D activity was tested using AGS (Cobioer, CBP60476) cell lines which harbor KRAS G12D mutation as described below.
AGS (Cobioer, CBP60476) were seeded in 384-well plates and cultured overnight (10.000 cells per well 40 μl total volume). The following morning, cells were treated with test compound, with staring concentration at 10 μM and 3-fold dilution down to 0.5 nM for 3 h at 37° C., DMSO treatment served as control. p-ERK was then measured using AlphaLISA SureFire Ultra p-ERK1/2 (Thr202/Tyr204) Assay Kit (Perkin Elmer, cat #ALSU-PERK) following the manufacturer's instruction as follows.
Briefly, the culture medium was removed and 20 μl 1× lysis buffer was added to each well, followed by 30 minutes incubation on a plate shaker at room temperature. Then 10 μl of lysate was transferred to a white 384-well plate. Acceptor mixture was prepared according to manufacturer's instruction. 5 μl acceptor mixture was added to the cell lysate and the plate was wrapped with foil, spun at 500 rpm for 10 s, and incubated at RT for 60 min. Donor mixture was prepared under subdued light. 5 μl donor mixture was added to the cell lysate and the plate was spun at 500 rpm for 10s and incubated at RT for another 60 min. in the dark. Signal was then measured on a EnVision 2105 multimode plate reader. Percentage inhibition was calculated with DMSO treatment as 100% of signal, and IC50 was calculated by XLfit 5.5.x.

T1 sequence (P01116 1-188 isoform P01116-2 G12D): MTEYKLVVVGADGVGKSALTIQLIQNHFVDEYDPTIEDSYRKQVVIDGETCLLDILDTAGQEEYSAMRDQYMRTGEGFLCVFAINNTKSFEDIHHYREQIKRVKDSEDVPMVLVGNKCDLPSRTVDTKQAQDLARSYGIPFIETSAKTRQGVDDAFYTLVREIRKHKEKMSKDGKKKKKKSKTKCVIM

In the case of C#Cc1cccc2cc(O)cc(-c3ncc4c(N5C[C@H]6CC[C@@H](C5)N6)nc(OCC56CCCN5Cc5c6cnn5C)nc4c3F)c12 (stereo partly drawn) [Example 36, 4-(4-((1R,5S)-3,8-diazabicyclo[3.2.1]octan-3-yl)-8-fluoro-2-((1-methyl-1,5,6,8-tetrahydropyrazolo[4,3-a]pyrrolizin-3b(4H)-yl)methoxy)pyrido[4,3-d]pyrimidin-7-yl)-5-ethynylnaphthalen-2-ol], the EC50 is reported as 5.2 nM.
Work on C#Cc1cccc2cc(O)cc(-c3ncc4c(N5CC6CCC(C5)N6)nc(OCC56CCCN5CC(=CC)C6)nc4c3F)c12 (stereo not shown) [Example 15] yielded an EC50 of 0.1 nM.
In the case of C#Cc1cccc2cc(O)cc(-c3ncc4c(N5CC6CCC(C5)N6)nc(OCC56CCCN5Cc5cc(F)ccc56)nc4c3F)c12 (stereo not shown) [Example 25, 4-(4-(3,8-diazabicyclo[3.2.1]octan-3-yl)-8-fluoro-2-((7-fluoro-2,3-dihydro-1H-pyrrolo[2,1-a]isoindol-9b(5H)-yl)-methoxy)pyrido[4,3-d]pyrimidin-7-yl)-5-ethynylnaphthalen-2-ol], the EC50 is reported as 3 nM.
In the case of C#Cc1c(F)ccc2cccc(-c3ncc4c(N5CC6CCC(C5)N6)nc(OCC56CCCN5Cc5ccccc56)nc4c3F)c12 (stereo not shown) [Example 12, 9b-(((4-(3,8-diazabicyclo[3.2.1]octan-3-yl)-7-(8-ethynyl-7-fluoronaphthalen-1-yl)-8-fluoropyrido[4,3-d]pyrimidin-2-yl)oxy)methyl)-2,3,5,9b-tetrahydro-1H-pyrrolo[2,1-a]isoindole], the EC50 is reported as 105 nM.
C#Cc1c(F)ccc2cccc(-c3c(Cl)cc4c(N5C[C@H]6CC[C@@H](C5)N6)nc(OCC56CCCN5CC(=C)C6)nc4c3F)c12 (stereo partly drawn) [Example 55, 4-((1R,5S)-3,8-diazabicyclo[3.2.1]octan-3-yl)-6-chloro-7-(8-ethynyl-7-fluoronaphthalen-1-yl)-8-fluoro-2-((2-methylenetetrahydro-1H-pyrrolizin-7a(5H)-yl)methoxy)quinazoline] showed an EC50 of over 100 nM.
In the case of C#Cc1cccc2cc(O)cc(-c3ncc4c(N5CC6CCC(C5)N6)nc(OCC56CCCN5Cc5cccc(F)c56)nc4c3F)c12 (stereo not shown) [Example 27, 4-(4-(3,8-diazabicyclo[3.2.1]octan-3-yl)-8-fluoro-2-((9-fluoro-2,3-dihydro-1H-pyrrolo[2,1-a]isoindol-9b(5H)-yl)-methoxy)pyrido[4,3-d]pyrimidin-7-yl)-5-ethynylnaphthalen-2-ol], the EC50 is reported as 20 nM.
C#Cc1cccc2cc(O)cc(-c3ncc4c(N5CC6CCC(C5)N6)nc(OCC56CCCN5Cc5ccncc56)nc4c3F)c12 (stereo not shown) [Example 32, 4-(4-(3,8-diazabicyclo[3.2.1]octan-3-yl)-2-((8,9-dihydro-5H-pyrido[3,4-a]pyrrolizin-9a(7H)-yl)methoxy)-8-fluoropyrido[4,3-d]pyrimidin-7-yl)-5-ethynylnaphthalen-2-ol] gave an EC50 of 6 nM.
For C#Cc1cccc2cc(O)cc(-c3ncc4c(N5CC6CC7(CC7)C(C5)N6)nc(OCC56CCCN5CCC6)nc4c3F)c12 (stereo not shown) [Example 53, 5-ethynyl-4-(8-fluoro-4-(3,8-diazaspiro[bicyclo[3.2.1]octane-6,1′-cyclopropan]-3-yl)-2-((tetrahydro-1H-pyrrolizin-7a(5H)-yl)methoxy)pyrido[4,3-d]pyrimidin-7-yl)naphthalen-2-ol], the EC50 was 266 nM.
In the case of C#Cc1cccc2cc(O)cc(-c3ncc4c(N5C[C@H]6CC[C@@H](C5)N6)nc(OCC56CCCN5Cc5c(COC)cccc56)nc4c3F)c12 (stereo partly drawn) [Example 33, 4-(4-((1R,5S)-3,8-diazabicyclo-[3.2.1]octan-3-yl)-8-fluoro-2-((6-(methoxymethyl)-2,3-dihydro-1H-pyrrolo[2,1-a]isoindol-9b(5H)-yl)methoxy)-pyrido[4,3-d]pyrimidin-7-yl)-5-ethynylnaphthalen-2-ol], the EC50 is reported as 1.4 nM.
Compound C#Cc1cccc2cc(O)cc(-c3ncc4c(N5C[C@H]6CC[C@@H](C5)N6)nc(OCC56CCCN5CC(=CC(F)F)C6)nc4c3F)c12 (stereo partly drawn) [Example 3, 4-(4-((1R,5S)-3,8-diazabicyclo[3.2.1]octan-3-yl)-2-((2-(2,2-difluoroethylidene)-tetrahydro-1H-pyrrolizin-7a(5H)-yl)methoxy)-8-fluoropyrido[4,3-d]pyrimidin-7-yl)-5-ethynylnaphthalen-2-ol] has an EC50 of 1.5 nM.
